# Test results as given in patent US4110368A, “Hydro substituted prostanoic acids and esters” (American Cyanamid Company, priority 1977, dated 1978).
# Legend:
# gastric acid secretion = gastric acid secretion inhibition, modified Shay rat procedure; format: in vivo, rat (male, CFE strain); settings: intraduodenal dose 100 mg./kg. of body weight; 3 hours; 20% or more = active
# Description: The novel compounds of the present invention are also effective inhibitors of gastric acid secretion and of ulcer development in experimental animals, and thus are potentially valuable as agents for the control of gastric acid secretion and of gastric erosion and as anti-ulcer agents. Gastric acid secretion inhibitory action is usually measured by the "Shay rat" procedure ^(1,2) with some modifications as follows.
# The rats (male, CFE strain) were starved for 48 hours (water was given ad libitum) to permit evacuation of stomach contents. On the morning of the experiment, under ether anesthesia, the abdominal region was shaved and a midline incision (1-1 1/2 inch) was made with a scapel. […]
# The abdominal cavity was exposed by cutting with scissors and the esophagus close to the stomach was clamped off with a hemostat, the stomach was removed by cutting above the hemostat (the esophagus was cut) and between the two sutures. […] The supernatant was collected, volume measured and recorded, 2 drops of a phenolphthalein indicator (1% in 95% ethanol) were added and the solution was titrated with 0.02N NaOH (or with 0.04N NaOH when large volumes of stomach contents were encountered) to pH 8.4 (because of usual coloring of the stomach contents, phenolphthalein was only used to permit visual indication that the end point was near) and the amount of acid present was calculated. […]
# [1] = test system: ulcerogenic properties of indomethacin; test: protection against indomethacin-induced ulcers (ulcer score); format: in vivo, rat; settings: two half doses by gavage, indomethacin 20 mg./kg. s.c., ulcer scale 0-4, score 2.5 or lower = active
# Description: The compounds of this invention provide protection against the ulcerogenic properties of indomethacin. This assay was carried out in the following manner.
# Rats were starved for 48 hours (water was given ad libitum). Indomethacin (20 mg./kg. of body weight) was administered by the subutaneous route and one-half the dose of the test compound was administered by gavage at the same time. After 3 hours, the second half of the test compound was administered also by Gavage. Five hours after the administration of indomethacin the animals were decapitated and the stomachs removed. The stomachs were washed with distilled water, blotted on gauze, cut along the larger curvature, and the contents rinsed with distilled water. The stomachs were spread out, pinned on a cork and visualized under magnifying glass for ulcers. The criteria for scoring of ulcers was as previously reported. [Abdel-Galil et al. Brit. J. Pharmac. Chemotherapy 33:1-14 (1968)].
# 1 -- Petechial hemorrhage or pin point ulcer
# 3 -- Many ulcers, a few large
# 4 -- Many ulcers, mainly large
# Control animals treated with indomethacin but not test compound consistently give scores of about 3.0-3.5. Control animals treated with neither indomethacin nor test compound give scores of about 0.5-0.8. Compounds producing a score of 2.5 or lower are considered to be active.
# [2] = total oral dose 25 mg./kg. of body weight, control 3.2
smiles,measurement,setting,value
"CCCCCC(O)/C=C/[C@H]1CCC(=O)[C@@H]1CCCCC(C)(C)CC(=O)O (relative stereo) [9-oxo-15-hydroxy-3,3-dimethyl-13-trans-prostenoic acid]",Percent Inhibition (gastric acid secretion),gastric acid secretion,51%
CCCCCC(O)/C=C/[C@H]1CCC(=O)[C@@H]1CCCCCC(CC)C(=O)O (relative stereo),"Score, Treated","[1]; total oral dose 50 mg./kg. of body weight, control 3.0",2.2
CCCCC[C@@H](O)/C=C/[C@H]1CCC(=O)[C@@H]1CCCCSCC(=O)O (relative stereo) [9-oxo-3-thia-15-epi-hydroxy-13-trans-prostenoic acid],"Score, Treated",[1]; [2],2.3
CCCCC(CC)C(O)/C=C/[C@H]1CCC(=O)[C@@H]1CCCCCCC(=O)O (relative stereo) [9-oxo-15-hydroxy-16-ethyl-13-trans-prostenoic acid],"Score, Treated",[1]; [2],1.7
"CCCCCC(O)/C=C\[C@H]1CCC(=O)[C@@H]1CCCCCCC(=O)O (relative stereo) [9-oxo-15-hydroxy-13-cis-prostenoic acid, 15-hydroxy-9-oxo-13-cis-prostenoic acid]","Score, Treated","[1]; total oral dose 100 mg./kg. of body weight, control 3.0",1.3
CCCCCC(O)/C=C/C1CCC(=O)C1CCCCSCC(=O)O (stereo not drawn) [9-oxo-3-thia-15-hydroxy-13-trans-prostenoic acid],"Score, Treated",[1]; [2],1.8
CCCCCC(O)/C=C/C1CCC(=O)C1(C)CCCCCCC(=O)O (stereo not drawn) [9-oxo-8β-methyl-15-hydroxy-13-trans-prostenoic acid],"Score, Treated","[1]; total oral dose 12.5 mg./kg. of body weight, control 3.0",2.0
